{"source": "BindingDB's records for PubMed 8093723", "about": "(Dainippon Pharmaceutical, 1993)", "key": {"[1]": {"biological_target": "Beta-2 adrenergic receptor (Rattus norvegicus, UniProt P10608)", "sequence (P10608 whole entry)": "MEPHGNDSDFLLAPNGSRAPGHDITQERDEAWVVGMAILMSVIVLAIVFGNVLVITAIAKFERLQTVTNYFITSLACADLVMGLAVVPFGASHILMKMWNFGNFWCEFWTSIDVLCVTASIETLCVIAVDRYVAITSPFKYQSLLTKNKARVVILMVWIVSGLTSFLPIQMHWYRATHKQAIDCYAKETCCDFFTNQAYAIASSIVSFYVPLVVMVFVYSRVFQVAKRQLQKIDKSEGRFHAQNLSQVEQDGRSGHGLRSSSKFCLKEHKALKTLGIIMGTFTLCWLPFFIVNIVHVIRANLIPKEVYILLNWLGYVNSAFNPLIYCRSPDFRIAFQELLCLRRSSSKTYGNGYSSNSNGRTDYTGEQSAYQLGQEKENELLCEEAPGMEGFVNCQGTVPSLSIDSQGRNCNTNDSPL"}, "[2]": {"biological_target": "D(1A) dopamine receptor (Rattus norvegicus, UniProt P18901)", "sequence (P18901 whole entry)": "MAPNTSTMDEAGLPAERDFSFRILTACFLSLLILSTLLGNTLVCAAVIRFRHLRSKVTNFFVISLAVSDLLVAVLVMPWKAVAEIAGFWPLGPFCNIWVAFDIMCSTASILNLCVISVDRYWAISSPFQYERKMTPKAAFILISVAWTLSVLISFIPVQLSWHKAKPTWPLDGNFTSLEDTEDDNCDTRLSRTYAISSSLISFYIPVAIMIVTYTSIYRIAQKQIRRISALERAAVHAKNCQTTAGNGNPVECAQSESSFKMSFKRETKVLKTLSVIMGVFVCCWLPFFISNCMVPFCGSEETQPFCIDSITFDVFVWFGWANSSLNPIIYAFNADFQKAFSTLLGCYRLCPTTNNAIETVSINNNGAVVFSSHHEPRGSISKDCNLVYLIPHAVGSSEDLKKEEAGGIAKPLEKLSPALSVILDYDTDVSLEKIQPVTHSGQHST"}, "[3]": {"biological_target": "Sigma non-opioid intracellular receptor 1 (Cavia porcellus, UniProt Q60492)", "sequence (Q60492 whole entry)": "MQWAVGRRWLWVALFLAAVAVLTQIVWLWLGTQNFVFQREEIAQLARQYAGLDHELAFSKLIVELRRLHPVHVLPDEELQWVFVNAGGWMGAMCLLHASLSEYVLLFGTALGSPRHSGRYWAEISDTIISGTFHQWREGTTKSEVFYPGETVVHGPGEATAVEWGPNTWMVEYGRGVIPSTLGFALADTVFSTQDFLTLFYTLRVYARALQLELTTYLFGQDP"}, "[4]": {"biological_target": "T1, Muscarinic acetylcholine receptor M2 (Rattus norvegicus, UniProt P10980)", "T1 sequence (P10980 whole entry)": "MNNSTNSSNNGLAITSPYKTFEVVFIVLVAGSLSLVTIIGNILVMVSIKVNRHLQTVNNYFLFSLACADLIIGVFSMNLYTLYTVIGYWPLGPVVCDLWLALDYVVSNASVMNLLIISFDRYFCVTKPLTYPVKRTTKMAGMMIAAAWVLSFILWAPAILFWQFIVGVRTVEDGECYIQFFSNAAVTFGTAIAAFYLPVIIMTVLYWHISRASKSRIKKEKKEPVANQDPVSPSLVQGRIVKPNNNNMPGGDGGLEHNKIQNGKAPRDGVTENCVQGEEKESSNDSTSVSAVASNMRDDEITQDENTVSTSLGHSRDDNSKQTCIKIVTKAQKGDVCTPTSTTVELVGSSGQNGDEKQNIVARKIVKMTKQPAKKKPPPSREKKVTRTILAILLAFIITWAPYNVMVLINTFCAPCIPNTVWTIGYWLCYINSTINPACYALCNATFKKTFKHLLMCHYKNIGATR"}, "[5]": {"biological_target": "D(2) dopamine receptor (Rattus norvegicus, UniProt P61169)", "sequence (P61169 whole entry)": "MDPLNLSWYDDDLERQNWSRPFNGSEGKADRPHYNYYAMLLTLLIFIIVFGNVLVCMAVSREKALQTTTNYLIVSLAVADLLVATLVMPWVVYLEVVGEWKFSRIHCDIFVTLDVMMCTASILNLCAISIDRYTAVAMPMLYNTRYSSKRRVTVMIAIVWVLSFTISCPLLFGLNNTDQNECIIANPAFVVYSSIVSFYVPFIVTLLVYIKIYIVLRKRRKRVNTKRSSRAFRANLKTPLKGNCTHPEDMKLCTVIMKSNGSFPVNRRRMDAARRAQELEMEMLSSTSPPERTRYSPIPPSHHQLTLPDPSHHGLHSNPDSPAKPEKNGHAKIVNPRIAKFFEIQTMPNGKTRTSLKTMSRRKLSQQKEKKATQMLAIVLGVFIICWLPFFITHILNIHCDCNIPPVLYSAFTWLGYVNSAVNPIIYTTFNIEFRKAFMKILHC"}, "[6]": {"biological_target": "Gamma-aminobutyric acid receptor subunit alpha-1 (Rattus norvegicus, UniProt P62813)", "sequence (P62813 whole entry)": "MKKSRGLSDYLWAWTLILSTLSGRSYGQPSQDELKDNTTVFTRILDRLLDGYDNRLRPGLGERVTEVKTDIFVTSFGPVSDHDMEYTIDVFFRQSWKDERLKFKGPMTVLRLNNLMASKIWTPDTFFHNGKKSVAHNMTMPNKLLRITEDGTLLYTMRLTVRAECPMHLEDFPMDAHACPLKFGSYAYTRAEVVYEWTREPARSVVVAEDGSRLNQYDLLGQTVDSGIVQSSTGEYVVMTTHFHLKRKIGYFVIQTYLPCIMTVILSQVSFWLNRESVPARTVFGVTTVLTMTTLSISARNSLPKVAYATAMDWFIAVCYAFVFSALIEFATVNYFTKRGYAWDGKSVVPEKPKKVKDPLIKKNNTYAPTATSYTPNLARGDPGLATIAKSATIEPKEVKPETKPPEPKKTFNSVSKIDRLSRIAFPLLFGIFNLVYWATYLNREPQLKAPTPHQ"}, "[7]": {"biological_target": "Gamma-aminobutyric acid (GABA) B receptor 1 (Rattus norvegicus, UniProt Q6MFX8)", "sequence (Q6MFX8 whole entry)": "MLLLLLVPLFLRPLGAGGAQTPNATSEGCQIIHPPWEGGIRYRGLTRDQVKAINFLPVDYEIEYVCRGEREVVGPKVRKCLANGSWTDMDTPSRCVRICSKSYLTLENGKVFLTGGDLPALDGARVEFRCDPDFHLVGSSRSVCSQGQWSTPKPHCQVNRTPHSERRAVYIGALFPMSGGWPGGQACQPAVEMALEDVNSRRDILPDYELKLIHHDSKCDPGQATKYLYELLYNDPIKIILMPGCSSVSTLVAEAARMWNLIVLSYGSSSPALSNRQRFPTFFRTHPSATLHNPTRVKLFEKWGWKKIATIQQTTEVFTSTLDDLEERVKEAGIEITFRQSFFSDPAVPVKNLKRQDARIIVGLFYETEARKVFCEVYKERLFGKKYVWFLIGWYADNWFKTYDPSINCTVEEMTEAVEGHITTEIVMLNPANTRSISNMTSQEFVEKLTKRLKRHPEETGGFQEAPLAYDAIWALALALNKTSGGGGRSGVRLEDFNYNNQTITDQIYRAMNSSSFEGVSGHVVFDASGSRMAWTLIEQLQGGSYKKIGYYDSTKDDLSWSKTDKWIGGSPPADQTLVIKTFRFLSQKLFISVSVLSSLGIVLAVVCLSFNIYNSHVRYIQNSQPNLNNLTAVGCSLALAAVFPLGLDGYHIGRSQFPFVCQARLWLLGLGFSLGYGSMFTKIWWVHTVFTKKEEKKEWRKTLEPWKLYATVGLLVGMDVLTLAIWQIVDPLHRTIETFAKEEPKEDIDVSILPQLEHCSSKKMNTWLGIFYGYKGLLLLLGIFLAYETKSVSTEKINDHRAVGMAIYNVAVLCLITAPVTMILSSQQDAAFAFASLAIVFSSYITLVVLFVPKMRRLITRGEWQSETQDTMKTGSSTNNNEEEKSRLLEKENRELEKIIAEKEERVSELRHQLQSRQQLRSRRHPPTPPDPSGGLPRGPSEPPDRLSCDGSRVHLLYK"}, "[8]": {"biological_target": "Histamine H1 receptor (Rattus norvegicus, UniProt P31390)", "sequence (P31390 whole entry)": "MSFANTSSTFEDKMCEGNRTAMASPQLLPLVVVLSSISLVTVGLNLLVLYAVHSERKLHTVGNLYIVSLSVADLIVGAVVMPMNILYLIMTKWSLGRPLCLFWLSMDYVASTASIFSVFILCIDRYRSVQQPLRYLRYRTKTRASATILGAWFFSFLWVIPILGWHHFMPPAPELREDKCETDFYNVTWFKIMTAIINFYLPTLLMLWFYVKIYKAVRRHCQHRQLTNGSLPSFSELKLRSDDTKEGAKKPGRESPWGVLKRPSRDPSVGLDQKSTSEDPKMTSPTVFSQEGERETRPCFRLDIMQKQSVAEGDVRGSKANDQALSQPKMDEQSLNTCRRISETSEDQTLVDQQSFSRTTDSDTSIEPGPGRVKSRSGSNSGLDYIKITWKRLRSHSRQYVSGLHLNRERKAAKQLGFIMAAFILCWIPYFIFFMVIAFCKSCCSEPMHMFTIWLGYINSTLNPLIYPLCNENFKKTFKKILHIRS"}}, "data": [{"smiles": "CCN1CCN(c2cc(-c3ccc(F)cc3)c3c(n2)CCCCCC3)CC1", "note": "[AD-5423]", "values": [{"measurement": "Ki", "setting": "[1]", "value": "> 10", "unit": "µM"}, {"measurement": "Ki", "setting": "[2]", "value": 2870, "unit": "nM"}, {"measurement": "Ki", "setting": "[3]", "value": 286, "unit": "nM"}, {"measurement": "Ki", "setting": "[4]", "value": 2300, "unit": "nM"}, {"measurement": "Ki", "setting": "[5]", "value": 14.8, "unit": "nM"}, {"measurement": "Ki", "setting": "[6]", "value": "> 10", "unit": "µM"}, {"measurement": "Ki", "setting": "[7]", "value": "> 10", "unit": "µM"}, {"measurement": "Ki", "setting": "[8]", "value": 3.01, "unit": "µM"}]}]}
